Measured values as given in patent US20230105212A1, “BIPHENYL DERIVATIVE INHIBITOR, PREPARATION METHOD THEREFOR AND USE THEREOF” (SHANGHAI HANSOH BIOMEDICAL CO., LTD., priority 2020, published 2023).
Like-named read-outs stand apart in the source and are kept apart here.

Key:
[1] = biological target: T1, human PD-1/PD-L1 binding (Homo sapiens, UniProt Q9NZQ7); assay: Inhibition of human PD-1/PD-L1 binding (TR-FRET/HTRF); conditions: TR-FRET, PD-L1-His and PD-1-Fc; read-out: PD-1/PD-L1 binding IC50
T1 construct: PD-L1-His protein (19 to 238 amino acids) (Abcam #ab167713); purchased Abcam (PD-L1-His); R&D (PD-1-Fc) ab167713; 1086-PD
Procedure, shortened: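 PD-L1-His (aa 19–238, diluted to 10 nM) and PD-1-Fc (aa 25–167, diluted to 20 nM) incubated with compounds (10 μM or 1 μM top, 3-fold, 11 doses) 60 min at room temperature, then anti-6HIS Eu cryptate/anti-human IgG-XL665 added for 3 h RT or overnight 4 °C. HTRF 665/620 nm ratio gave inhibition and IC50.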

[2] = biological target: T2, human PD-L1 protein (Homo sapiens, UniProt Q9NZQ7); assay: Thermal shift: melting temperature of PD-L1 protein; format: binding; conditions: read-out: ΔTm (° C.)
T2 construct: purchased Acro Biosystems PD1-H5229
Protocol: Test Embodiment 4. Test of Combination of the Compounds of the Present Disclosure to Improve the Stability (Melting Temperature) of PD-L1 Protein Experimental purpose: To test the ability of compounds to enhance the stability of PD-L1 protein and increase the melting temperature of the protein. Experimental method: […] A solution containing […] HEPES, SYPRO Orange, and 150 mM NaCl was prepared as experimental buffer, and human PD-L1 protein was added at a final concentration of 2 μM. […] PCR tube was put into the PCR machine, and the melt curve function was selected to detect the melting temperature of PD-L1 protein in different treatment groups (heated from 25° C. to 95° C., 0.03° C./s). The experimental data file of the PCR instrument was imported into the thermal shift software to obtain the melting temperature (Tm) of each treatment group, and the Tm of the DMSO vehicle control group was subtracted to obtain the change value (ΔTm) of the melting temperature, as shown in the following table: […]

[3] = biological target: T3, PD-L1 protein on the surface of MC38-hPDL1 tumor cells (Homo sapiens, UniProt Q9NZQ7); assay: Induction of endocytosis of PD-L1 on the surface of tumor cells (flow cytometry); format: cell-based; conditions: 16 hours incubation; for Emax: MC38-hPDL1 cells, read-out: MC38 maximum endocytosis rate; for IC50: inducing endocytosis of PD-L1, MC38-hPDL1 cells, read-out: MC38 IC50
T3 construct: expressed in transfected cells; host or cells: MC38-hPDL1 (mouse colon cancer cells)
Procedure, shortened: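 IC50 comes from nonlinear fits of endocytosis rate, calculated from the loss of surface PE-anti-CD274 flow signal relative to vehicle. Cells were MC38 mouse colon cancer cells engineered to express high human PD-L1. Compound exposure lasted 16 h at 37 °C, 5% CO2.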

[4] = compound 10 μM, PD-L1 protein 2 μM, Tm minus DMSO vehicle control

T2 sequence (Q9NZQ7 19-238 limits assumed): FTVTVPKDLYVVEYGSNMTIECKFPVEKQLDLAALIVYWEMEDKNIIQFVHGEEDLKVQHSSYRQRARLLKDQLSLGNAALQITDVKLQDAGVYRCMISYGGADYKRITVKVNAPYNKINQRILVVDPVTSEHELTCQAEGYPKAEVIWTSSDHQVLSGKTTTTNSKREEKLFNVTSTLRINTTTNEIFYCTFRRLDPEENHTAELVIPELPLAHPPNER
T1 sequence (Q9NZQ7 19-238): as the sequence (Q9NZQ7 19-238 limits assumed) above
T3 sequence (Q9NZQ7 19-290): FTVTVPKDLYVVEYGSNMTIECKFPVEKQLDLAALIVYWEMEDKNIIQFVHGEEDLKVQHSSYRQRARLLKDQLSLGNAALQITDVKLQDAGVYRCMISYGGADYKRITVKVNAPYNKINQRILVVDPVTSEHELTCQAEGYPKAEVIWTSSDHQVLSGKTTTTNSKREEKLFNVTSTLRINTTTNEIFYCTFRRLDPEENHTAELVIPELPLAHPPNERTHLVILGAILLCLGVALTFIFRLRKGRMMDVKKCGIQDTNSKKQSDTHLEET

| SMILES | IC50 [1] [nM] | ΔTm at 10 µM [2, 4] [°C] | Emax [3] [%] | IC50 [3] [nM] | ΔTm at 10 µM [2] [°C] |
| --- | --- | --- | --- | --- | --- |
| COc1nc(-c2cccc(-c3cccc(NC(=O)c4nc5c(n4C)CCN(C)C5)c3Cl)c2Cl)ccc1CN1CC2(CC(O)C2)C1 [Embodiment 185, N-(2,2′-Dichloro-3′-(5-((6-hydroxy-2-azaspiro[3.3]heptan-2-yl)methyl)-6-methoxypyridin-2-yl)-[1,1′-biphenyl]-3-yl)-1,5-dimethyl-4,5,6,7-tetrahydro-1H-imidazo[4,5-c]pyridine-2-carboxamide] | 5.3 | 20.9 | 97 | 0.7 | – |
| COc1nc(-c2cccc(-c3cccc(NC(=O)c4nc5c(n4C)CCN(C)C5)c3Cl)c2Cl)ccc1CN1CC[C@H]1CO [Embodiment 172, (S)—N-(2,2′-Dichloro-3′-(5-((2-(hydroxymethyl)azetidin-1-yl)methyl)-6-methoxypyridin-2-yl)-[1,1′-biphenyl]-3-yl)-1,5-dimethyl-4,5,6,7-tetrahydro-1H-imidazo[4,5-c]pyridine-2-carboxamide] | 6.3 | – | 94 | – | 13.9 |
| COc1nc(-c2cccc(-c3cccc(NC(=O)c4nc5c(n4C4CC4)CCN(C)C5)c3Cl)c2Cl)ccc1CN1CC(CO)C1 [Embodiment 245, 1-Cyclopropyl-N-(2,2′-dichloro-3′-(5-((3-(hydroxymethyl)azetidin-1-yl)methyl)-6-methoxypyridin-2-yl)-[1,1′-biphenyl]-3-yl)-5-methyl-4,5,6,7-tetrahydro-1H-imidazo[4,5-c]pyridine-2-carboxamide] | 4.4 | 10.2 | 93 | – | – |
| COc1nc(-c2cccc(-c3cccc(NC(=O)c4nc5c(n4C)CCN(C)C5)c3Cl)c2Cl)ccc1CN1CC(O)C1 [Embodiment 129, N-(2,2′-Dichloro-3′-(5-((3-hydroxyazetidin-1-yl)methyl)-6-methoxypyridin-2-yl)-[1,1′-biphenyl]-3-yl)-1,5-dimethyl-4,5,6,7-tetrahydro-1H-imidazo[4,5-c]pyridine-2-carboxamide] | 2.9 | – | 95 | 1 | 13.9 |
| CCn1c(C(=O)Nc2cccc(-c3cccc(-c4ccc(CN5CC6(C5)CN(C(C)=O)C6)c(OC)n4)c3Cl)c2Cl)nc2c1CCN(C)C2 [Embodiment 238, N-(3′-(5-((6-Acetyl-2,6-diazaspiro[3.3]heptan-2-yl)methyl)-6-methoxypyridin-2-yl)-2,2′-dichloro-[1,1′-biphenyl]-3-yl)-1-ethyl-5-methyl-4,5,6,7-tetrahydro-1H-imidazo[4,5-c]pyridine-2-carboxamide] | 4.1 | 10.8 | 95 | – | – |
| COc1nc(-c2cccc(-c3cccc(NC(=O)c4nc5c(n4C4CC4)CCN(C)C5)c3Cl)c2Cl)ccc1CN1CC2(CC(NC(C)=O)C2)C1 [Embodiment 246, N-(3′-(5-((6-Acetylamino-2-azaspiro[3.3]heptan-2-yl)methyl)-6-methoxypyridin-2-yl)-2,2′-dichloro-[1,1′-biphenyl]-3-yl)-1-cyclopropyl-5-methyl-4,5,6,7-tetrahydro-1H-imidazo[4,5-c]pyridine-2-carboxamide] | 5.4 | 11 | 94 | – | – |
| COc1nc(-c2cccc(-c3cccc(NC(=O)c4nc5c(n4C)CCN(C)C5)c3Cl)c2Cl)ccc1CN1CCN(C(=O)CC#N)CC1 [Embodiment 198, N-(2,2′-Dichloro-3′-(5-((4-(2-cyanoacetyl)piperazin-1-yl)methyl)-6-methoxypyridin-2-yl)-[1,1′-biphenyl]-3-yl)-1,5-dimethyl-4,5,6,7-tetrahydro-1H-imidazo[4,5-c]pyridine-2-carboxamide] | 9.6 | 12 | 94 | – | – |
| COc1nc(-c2cccc(-c3cccc(NC(=O)c4nc5c(n4C)CCN(C)C5)c3Cl)c2Cl)ccc1CN1CC2(CCN(C(=O)C(C)C)C2)C1 [Embodiment 196, N-(2,2′-Dichloro-3′-(5-((6-isobutyryl-2,6-diazaspiro[3.4]octan-2-yl)methyl)-6-methoxypyridin-2-yl)-[1,1′-biphenyl]-3-yl)-1,5-dimethyl-4,5,6,7-tetrahydro-1H-imidazo[4,5-c]pyridine-2-carboxamide] | – | 12.4 | 96 | – | – |

Now from value to compound, other results behind:

| IC50 [1] [nM] | ΔTm at 10 µM [2, 4] [°C] | Emax [3] [%] | IC50 [3] [nM] | SMILES | ΔTm at 10 µM [2] [°C] |
| --- | --- | --- | --- | --- | --- |
| 3.5 | 14.8 | 97 | 0.4 | COc1nc(-c2cccc(-c3cccc(NC(=O)c4nc5c(n4C)CCN(C)C5)c3Cl)c2Cl)ccc1CN1CC(OC(C)=O)C1 [Embodiment 122, 1-((6-(2,2′-Dichloro-3′-(1,5-dimethyl-4,5,6,7-tetrahydro-1H-imidazo[4,5-c]pyridine-2-carboxamido)-[1,1′-biphenyl]-3-yl)-2-methoxypyridin-3-yl)methyl)azetidin-3-yl acetate] | – |
| 6.4 | 11.3 | 93 | – | CCn1c(C(=O)Nc2cccc(-c3cccc(-c4ccc(CN[C@H]5CCOC[C@@H]5O)c(OC)n4)c3Cl)c2Cl)nc2c1CCN(C)C2 (relative stereo) [Embodiment 235, N-(2,2′-Dichloro-3′-(5-(((trans-3-hydroxytetrahydro-2H-pyran-4-yl)amino)methyl)-6-methoxypyridin-2-yl)-[1,1′-biphenyl]-3-yl)-1-ethyl-5-methyl-4,5,6,7-tetrahydro-1H-imidazo[4,5-c]pyridine-2-carboxamide] | – |
| 1.8 | 11.3 | 95 | – | COc1nc(-c2cccc(-c3cccc(NC(=O)c4nc5c(n4C)CCN(C)C5)c3Cl)c2Cl)ccc1CN1CCCC[C@H]1C(=O)O [Embodiment 230, (S)-1-((6-(2,2′-Dichloro-3′-(1,5-dimethyl-4,5,6,7-tetrahydro-1H-imidazo[4,5-c]pyridine-2-carboxamido)-[1,1′-biphenyl]-3-yl)-2-methoxypyridin-3-yl)methyl)piperidine-2-carboxylic Acid] | – |
| 0.8 | 14 | 97 | 4.5 | COc1nc(-c2cccc(-c3cccc(NC(=O)c4nc5c(n4C)CCN(C)C5)c3Cl)c2Cl)ccc1CNCC(=O)O [Embodiment 138, ((6-(2,2′-Dichloro-3′-(1,5-dimethyl-4,5,6,7-tetrahydro-1H-imidazo[4,5-c]pyridine-2-carboxamido)-[1,1′-biphenyl]-3-yl)-2-methoxypyridin-3-yl)methyl)glycine] | – |
| 2.3 | 10.5 | – | – | COc1cc(C(=O)Nc2cccc(-c3cccc(NC(=O)c4nc5c(n4C)CCN(C)C5)c3Cl)c2C)ncc1CN[C@@H]1CONC1=O [Embodiment 96, (R)—N-(2-Chloro-3′-(4-methoxy-5-(((3-carbonylisoxazolidin-4-yl)amino)methyl)picolinamido)-2′-methyl-[1,1′-biphenyl]-3-yl)-1,5-dimethyl-4,5,6,7-tetrahydro-1H-imidazo[4,5-c]pyridine-2-carboxamide] | – |
| 7.9 | 12.3 | 96 | – | COc1nc(-c2cccc(-c3cccc(NC(=O)c4nc5c(n4C)CCN(C)C5)c3Cl)c2Cl)ccc1CNC1CN(C(C)=O)C1 [Embodiment 179, N-(3′-(5-(((1-Acetylazetidin-3-yl)amino)methyl)-6-methoxypyridin-2-yl)-2,2′-dichloro-[1,1′-biphenyl]-3-yl)-1,5-dimethyl-4,5,6,7-tetrahydro-1H-imidazo[4,5-c]pyridine-2-carboxamide] | – |
| 4.2 | 11.6 | 95 | – | COc1nc(-c2cccc(-c3cccc(NC(=O)c4nc5c(n4C)CCN(C)C5)c3Cl)c2Cl)ncc1CN[C@H]1CCOC[C@@H]1O (relative stereo) [Embodiment 228, N-(2,2′-Dichloro-3′-(5-(((trans-3-hydroxytetrahydro-2H-pyran-4-yl)amino)methyl)-4-methoxypyrimidin-2-yl)-[1,1′-biphenyl]-3-yl)-1,5-dimethyl-4,5,6,7-tetrahydro-1H-imidazo[4,5-c]pyridine-2-carboxamide] | – |
| 1.2 | 16.7 | 98 | 3.1 | COc1nc(-c2cccc(-c3cccc(NC(=O)c4nc5c(n4C)CCN(C)C5)c3Cl)c2Cl)ccc1CN1CC(C(=O)O)C1 [Embodiment 135, 1-((6-(2,2′-Dichloro-3′-(1,5-dimethyl-4,5,6,7-tetrahydro-1H-imidazo[4,5-c]pyridine-2-carboxamido)-[1,1′-biphenyl]-3-yl)-2-methoxypyridin-3-yl)methyl)azetidine-3-carboxylic Acid] | – |
